Data published in PubChem BioAssay (NCI).
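Protocol summary: plate cells (96-well), add compound at 5 concentrations, incubate 48 h, interpolate endpoints linearly. Definition used: TGI = concentration required for complete inhibition of growth.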

Tests used:
Assay in all cases: NCI tumour cell line growth inhibition, 48 h
KM20L2 colon = tested on: KM20L2 colon
P388 leukemia = tested on: P388 leukemia
P388/ADR leukemia = tested on: P388/ADR leukemia
SN12K1 renal = tested on: SN12K1 renal
LXFL 529 NSCLC = tested on: LXFL 529 NSCLC
M19-MEL melanoma = tested on: M19-MEL melanoma
RXF-631 renal = tested on: RXF-631 renal
SNB-78 CNS = tested on: SNB-78 CNS
XF 498 CNS = tested on: XF 498 CNS

Row | SMILES | TGI (KM20L2 colon) [µM] | TGI (P388 leukemia) [µM] | TGI (P388/ADR leukemia) [µM] | TGI (SN12K1 renal) [µM] | TGI (LXFL 529 NSCLC) [µM] | TGI (M19-MEL melanoma) [µM] | TGI (RXF-631 renal) [µM] | TGI (SNB-78 CNS) [µM] | TGI (XF 498 CNS) [µM]
1 | CN(C)C(=O)/C=C/c1c[nH]c(=O)[nH]c1=O | > 500 | > 281 | > 281 | > 500 | – | – | – | – | –
2 | COc1ccc2c(c1)CCCN2CCCCCCCCCCN(CCC(C)C)CCC(C)C | 23.1 | – | – | – | 21.8 | 30.7 | 27.3 | 38.1 | 20.9
3 | COc1cc(/C=C/C(=O)Oc2ccc(NC(C)=O)cc2)ccc1C(=O)O/C=C/c1ccccc1 | > 100 | > 100 | > 100 | > 100 | – | > 100 | – | > 100 | > 100
4 | COc1ccc(/C(Cl)=C(\C=O)c2ccc(OC)cc2)cc1 | > 100 | – | – | – | > 100 | > 100 | > 100 | > 100 | –
5 | Nc1n[nH]c(=O)c2c1c(I)cn2C1OC(CO)C(O)C1O (centres undefined) | > 100 | – | – | – | > 100 | – | 7.36 | 6.8 | 8.3
6 | O=P1(c2ccccc2)Nc2ccccc2SSc2ccccc2N1 | 33.7 | > 38.6 | 31.2 | 30.7 | – | 34.4 | – | 56.3 | 32.7
7 | O=C(Nc1ccc([N+](=O)[O-])cc1[N+](=O)[O-])C(=O)C(C(=O)c1ccc2ccccc2c1)C1OC(=O)c2ccccc21 (centres undefined) | 61.9 | – | – | – | 26 | 29.6 | 66.3 | 82.5 | –
